The record followed here is PMC12951562, “SH2scan: Mapping SH2 Domain-Ligand Binding Selectivity for Inhibitors and Degraders” (Journal of Medicinal Chemistry, 2026).

Like-named read-outs stand apart in the source and are kept apart here. Non-standard residues stand in square brackets, D forms with d. Residues, ends and D or L forms follow the SMILES beside them. pY = N[C@@H](Cc1ccc(OP(=O)(O)O)cc1)C(=O)O

Common to all, as to experiment: biochemical
Test [1] deals with T1, FYN (Homo sapiens, UniProt P06241).
T1 construct: the DNA-tagged SH2 domain concentrations used in this study were <0.1 nM; made in house; host or cells: HEK293 (transient transfection; unpurified extract)
Type of test: binding.

The target of test [2] is T2, CISH (Homo sapiens, UniProt Q9NSE2).
T2 construct: the DNA-tagged SH2 domain concentrations used in this study were <0.1 nM; made in house; host or cells: HEK293 (transient transfection; unpurified extract)
T2 sequence (Q9NSE2 82-163 limits assumed): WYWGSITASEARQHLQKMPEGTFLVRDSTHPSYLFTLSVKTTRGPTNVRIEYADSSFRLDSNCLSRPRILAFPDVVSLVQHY
Type of test: binding. The conditions noted are these: for remaining activity at 10 µM: read-out: percent of DMSO vehicle control.

The target in test [3] is T3, SH2D1A (Homo sapiens, UniProt O60880).
T3 construct: made in house; host or cells: HEK293 (transient transfection), unpurified extract
T3 sequence (O60880 1-128): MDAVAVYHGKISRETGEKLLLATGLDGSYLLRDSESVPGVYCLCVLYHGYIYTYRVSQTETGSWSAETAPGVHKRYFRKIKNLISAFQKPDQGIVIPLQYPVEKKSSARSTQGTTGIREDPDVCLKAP
It counts as binding. The conditions noted are these: for remaining activity at 10 µM: read-out: percent of DMSO vehicle control.

The target of test [4] is T4, STAT3 (Homo sapiens, UniProt P40763).
T4 construct: made in house; host or cells: HEK293 (transient transfection), unpurified extract
It counts as binding.

The target of test [5] is T5, STAT3(E616del)-nonphosphorylated (Homo sapiens, UniProt P40763, DEL616-616).
T5 construct: made in house; host or cells: HEK293 (transient transfection), unpurified extract, dephosphorylated by endogenous phosphatases
It counts as binding.

Test [6] addresses T6, STAT3(N567K)-nonphosphorylated (Homo sapiens, UniProt P40763, N567K).
T6 construct: made in house; host or cells: HEK293 (transient transfection), unpurified extract, dephosphorylated by endogenous phosphatases
It counts as binding.

Test [7] deals with T7, STAT3(S614R)-nonphosphorylated (Homo sapiens, UniProt P40763, S614R).
T7 construct: made in house; host or cells: HEK293 (transient transfection), unpurified extract, dephosphorylated by endogenous phosphatases
It counts as binding.

The target in test [8] is T8, STAT3(Y640F)-nonphosphorylated (Homo sapiens, UniProt P40763, Y640F).
T8 construct: made in house; host or cells: HEK293 (transient transfection), unpurified extract, dephosphorylated by endogenous phosphatases
Type of test: binding.

For test [9], the target named is T9, STAT5A (Homo sapiens, UniProt P42229).
T9 construct: made in house; host or cells: HEK293 (transient transfection), unpurified extract
T9 sequence (P42229 1-794): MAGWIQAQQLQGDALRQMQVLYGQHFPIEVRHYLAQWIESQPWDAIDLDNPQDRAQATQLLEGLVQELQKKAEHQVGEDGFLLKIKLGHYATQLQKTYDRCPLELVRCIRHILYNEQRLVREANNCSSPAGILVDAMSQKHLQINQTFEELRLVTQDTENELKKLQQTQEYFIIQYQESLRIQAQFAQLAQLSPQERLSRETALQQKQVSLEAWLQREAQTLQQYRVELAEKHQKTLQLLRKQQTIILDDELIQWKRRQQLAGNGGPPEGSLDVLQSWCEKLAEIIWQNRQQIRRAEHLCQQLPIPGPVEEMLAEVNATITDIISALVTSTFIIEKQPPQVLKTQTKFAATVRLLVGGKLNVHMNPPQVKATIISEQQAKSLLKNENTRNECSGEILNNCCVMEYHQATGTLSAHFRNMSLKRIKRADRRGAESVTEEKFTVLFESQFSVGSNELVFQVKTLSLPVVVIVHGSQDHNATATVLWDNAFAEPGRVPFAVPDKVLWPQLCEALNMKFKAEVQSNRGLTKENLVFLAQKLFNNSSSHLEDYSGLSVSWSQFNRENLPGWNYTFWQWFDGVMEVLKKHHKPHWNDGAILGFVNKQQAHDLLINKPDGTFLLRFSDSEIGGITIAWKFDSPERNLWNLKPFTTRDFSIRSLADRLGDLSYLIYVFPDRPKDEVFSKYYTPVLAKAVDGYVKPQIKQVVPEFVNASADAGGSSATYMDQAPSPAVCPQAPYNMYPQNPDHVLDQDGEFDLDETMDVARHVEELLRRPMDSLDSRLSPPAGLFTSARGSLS
It counts as binding.

In test [10] the target is T10, STAT5B (Homo sapiens, UniProt P51692).
T10 construct: made in house; host or cells: HEK293 (transient transfection), unpurified extract
T10 sequence (P51692 1-787): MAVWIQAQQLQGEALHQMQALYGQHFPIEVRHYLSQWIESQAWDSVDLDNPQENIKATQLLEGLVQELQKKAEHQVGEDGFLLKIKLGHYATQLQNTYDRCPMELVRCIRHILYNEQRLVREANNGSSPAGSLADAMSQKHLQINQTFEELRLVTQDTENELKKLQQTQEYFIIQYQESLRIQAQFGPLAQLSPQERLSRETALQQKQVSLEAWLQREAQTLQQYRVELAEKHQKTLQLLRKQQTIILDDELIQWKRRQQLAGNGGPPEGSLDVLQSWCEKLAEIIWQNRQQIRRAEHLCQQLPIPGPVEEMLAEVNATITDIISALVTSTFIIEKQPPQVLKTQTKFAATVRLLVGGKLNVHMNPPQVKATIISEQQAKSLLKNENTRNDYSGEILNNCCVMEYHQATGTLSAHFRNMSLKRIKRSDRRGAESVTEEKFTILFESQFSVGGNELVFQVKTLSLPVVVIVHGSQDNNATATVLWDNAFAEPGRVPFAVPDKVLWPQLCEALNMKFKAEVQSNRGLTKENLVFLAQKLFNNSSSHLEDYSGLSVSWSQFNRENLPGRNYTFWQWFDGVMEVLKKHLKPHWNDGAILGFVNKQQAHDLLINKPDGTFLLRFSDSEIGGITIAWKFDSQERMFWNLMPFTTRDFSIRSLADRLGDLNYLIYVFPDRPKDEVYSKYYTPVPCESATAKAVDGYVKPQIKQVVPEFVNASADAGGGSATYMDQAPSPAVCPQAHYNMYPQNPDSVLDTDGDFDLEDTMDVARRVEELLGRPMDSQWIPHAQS
It counts as binding.

Test [11] deals with T11, ZAP70(SH2dom1.dom2.) (Homo sapiens, UniProt P43403).
T11 sequence (P43403 1-254 limits assumed): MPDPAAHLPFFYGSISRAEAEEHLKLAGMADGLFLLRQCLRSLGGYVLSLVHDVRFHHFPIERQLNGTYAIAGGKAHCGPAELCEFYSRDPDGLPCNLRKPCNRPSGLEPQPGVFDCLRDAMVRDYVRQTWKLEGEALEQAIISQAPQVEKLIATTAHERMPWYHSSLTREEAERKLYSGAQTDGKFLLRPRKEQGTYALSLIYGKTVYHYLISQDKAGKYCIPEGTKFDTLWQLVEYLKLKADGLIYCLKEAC
The conditions noted are these: read-out: percent of DMSO vehicle control.

Setting [12] is: primary screen, 10 μM, read-out: percent of DMSO vehicle control.
The mark [13] stands for this setting: read-out: percent of DMSO vehicle control.

One may read the Kd as the constant that tells how readily two partners part at equilibrium. Regarding `O=C(CCl)Nc1cccc(CNC(=O)[C@H](Cc2ccc(OP(=O)(O)O)cc2)NC(=O)Cc2ccc(F)cc2)c1` [MN551], the remaining activity at 10 µM in [1] (setting [12]) turned out to be 83.2 ± 0.4%; in [2] (primary screen, 10 μM) it was 3.2 ± 4.3%; in test [3] (primary screen, 10 μM) it was 77.9 ± 2.2%; in [4] (setting [12]), 67.8%; in [5] (setting [12]), 203%; in test [6] (setting [12]), 86.5 ± 6.2%. Besides, the remaining activity at 10 µM in [7] (setting [12]) was 95.7 ± 8.1%; in [8] (setting [12]), 49 ± 5.7%; in test [9] (setting [12]), 39 ± 0.8%; in test [10] (setting [12]), 49.1 ± 7.6%; in [11], 33.5%. In addition, the Kd in test [2] (dose-response, read-out: KD) came out at 46 nM.
With `NC(=O)CC[C@H](NC(=O)[C@@H]1CC[C@@H]2CCN(C(=O)CCCCCC#Cc3cccc4c3CN(C3CCC(=O)NC3=O)C4=O)C[C@H](NC(=O)c3cc4cc(C(F)(F)P(=O)(O)O)ccc4[nH]3)C(=O)N21)C(=O)NC(c1ccccc1)c1ccccc1` (some centres unmarked) [SD-36], the percent of DMSO vehicle control at 10 µM turned out to be 106% in test [1] (setting [13]); 0.1 ± 0.1% in test [4] (setting [13]); 0% in test [5] (setting [13]); 0.1% in test [6] (setting [13]); 1.6% in [7] (setting [13]); 0.2 ± 0.6% in test [8] (setting [13]). Moreover, the percent of DMSO vehicle control at 10 µM in test [9] (setting [13]) amounted to 3.4 ± 0.4%; in [10] (setting [13]), 5.7 ± 0.1%. The results for the remaining activity at 10 µM in test [2], in test [3] and in [11] were 42.8 ± 5.7%, 354% and 95.6 ± 1.3%, respectively. Besides, the Kd in test [4] (dose-response) was found to be 21 nM; in test [5] (dose-response), 28 ± 11 nM; in test [6] (dose-response), 30 ± 11 nM; in test [7] (dose-response), 9.7 ± 4.1 nM; in test [8] (dose-response), 80 ± 27 nM; in [9] (dose-response) it was 1600 ± 670 nM. The molecule further registered a Kd in test [10] (dose-response) of 2030 ± 820 nM.
Molecule `CC[C@H](C)[C@H](NC(=O)[C@H](CCC(=O)O)NC(=O)[C@H](CCC(=O)O)NC(=O)[C@H](Cc1ccc(OP(=O)(O)O)cc1)NC(C)=O)C(=O)N[C@@H](CCC(=O)O)C(N)=O` [Ac-pYEEIE-NH2] (Ac-[pY]EEIE-NH2) registered a Kd in test [1] of 3.3 µM. Besides, the “percent of DMSO vehicle control” value is 21.2±2.5% in test [1] (primary screen, 10 μM); 131.9% in test [2] (primary screen, 10 μM); 93.4% in test [3] (primary screen, 10 μM); 151.4% in [4] (primary screen, 10 μM); 86.7±0.4% in [5] (primary screen, 10 μM); 94.9±0.8% in test [6] (primary screen, 10 μM). Further, the “percent of DMSO vehicle control” value in test [7] (primary screen, 10 μM) is 96.3±8.9%; in test [8] (primary screen, 10 μM) it was 156.0%; in [9] (primary screen, 10 μM), 94.4±4.9%; in [10] (primary screen, 10 μM) it was 21.8±4.7%.
